Data on one compound can be found in patent publication US20070043102A1, “Oral suspension of tegaserod” (priority 2003, published 2007).

The structures appear in SMILES notation.

A short description of the series: Stability study of the oral suspensions (HPLC assay and degradation products). It counts as physicochemical. As for the experimental part:
The stability study is performed for maximum 3 days at the storage conditions of room temperature (about 20-25° C.) and/or 5° C. ( fridge). The start point (TO) is performed about 1 minute after preparation. Furthermore, a “24 hours” and “3 days” time point at room temperature and 5° C. is performed.
Analytical methods: For each time-point tested, the degradation products of Tegaserod by HPLC are evaluated. Analytical methods are based on Test Methods described below.
Procedure for assay determination: For each time-point, one tablet is crushed according to the above procedure. The crushed tablet is transferred quantitatively into a 100 ml amber glass volumetric flask. 50 ml of the beverage is carefully added and the suspension is shaken vigorously by hand a few time and allowed to stand for the storage time tested. The suspension is re-homogenized, by shaking by hand. For extraction, the flask is filled to the mark with methanol (about 50 ml) then shaken for 30 minutes under magnetic stirring, sonicated for 10 minutes and shaken for 30 minutes under magnetic stirring. An aliquot of the methanol solution is centrifuged. The clear supernatant of the above solution is used as the test solution and is analyzed by HPLC (Isocratic HPLC on reversed phase RP-8 with UV detection). The same procedure is carried out once for each beverage but without tablet powder and the resulting chromatograms are compared for new appearance of any peak.
Procedure for determination of degradation products: In order to enable to reach a sufficiently low limit to quantify the degradation products, the number of tablets to be crushed is increased. For each time-point, 6 tablets for 2 mg dosage strength (or 5 tablets for 6 mg dosage strength) are crushed according to the above procedure. The crushed tablet is transferred quantitatively into a 20 ml for 2 mg dosage strength (or 50 ml amber glass volumetric flask for 6 mg dosage strength). 10 ml for 2 mg dosage strength (or 25 ml for 6 mg dosage strength) of the beverage are added carefully. The suspension is shaken vigorously by hand a few time and is allowed to stand for the storage time tested. The suspension is re-homogenized by shaking by hand. For extraction, the flask is filled to the mark with acetonitrile and is shaken for 30 minutes under magnetic stirring, sonicated for 10 minutes and shaken for 30 minutes under magnetic stirring. An aliquot of the homogenized solution is centrifuged.
The clear supernatant of the above solution is used as the test solution in order to quantify using a gradient HPLC on reversed phase RP-8 with UV detection. The same procedure is carried out once for each beverage but without crushed tablet and the resulting chromatograms are compared and analyzed according to the scheme below.
Acceptance criteria: Tegaserod is assumed stable in the tested media if the following acceptance criteria are met for the time-points studied.

On to `CCCCCNC(=N)NN=Cc1c[nH]c2ccc(OC)cc12` [Tegaserod, 3-(5-methoxy-1H-indol-3-yl-methylene)-N-pentylcarbazimidamide], for which the time stable result by setting is: (crushed tablet in apple juice, fridge (5° C.), 2 mg dosage strength) “at least 24 hours”; (crushed tablet in apple juice, fridge (5° C.), 6 mg dosage strength) “up to 3 days”; (crushed tablet in apple juice, room temperature) “at least 1 hour”; (crushed tablet in orange juice, fridge (5° C.), 2 mg dosage strength) “at least 24 hours”; (crushed tablet in orange juice, fridge (5° C.), 6 mg dosage strength) “up to 3 days”; (crushed tablet in orange juice, room temperature) “at least 1 hour”. Also, the time stable result is on record as “at least 24 hours” (crushed tablet in water, fridge (5° C.), 2 mg dosage strength); “up to 3 days” (crushed tablet in water, fridge (5° C.), 6 mg dosage strength); “at least 1 hour” (crushed tablet in water, room temperature).
